As usually defined, the melting point is the temperature of the solid-liquid transition.

Molecules are shown by their SMILES. Several values for one entry are separate records, joined by “and”; a condition that tells them apart may be missing. Equal entries are not always repeated.

This note sets out measurements from the Bradley open melting point set (2014).

On to `Brc1ccccc1-c1nnn[nH]1` [5-(2-bromophenyl)-1h-tetrazole], for which the melting point was 182 °C.
Take `SC(c1ccccc1)(c1ccccc1)c1ccccc1` [triphenylmethyl mercaptan]: the melting point worked out at 106 °C.
In the case of `C=CC(N)=O` [acrylamide], the melting point was 84 °C.
For the molecule `COCCOC` [1,2-dimethoxyethane], the melting point is -69 °C.
As for `CCCCC1CCCCC1` [butylcyclohexane], the melting point was -75 °C.
Molecule `COc1cc2nnc(/C=C/C(C)=O)c(-c3ccc(C)o3)c2cc1OC` gave a melting point of 170 °C.
For the molecule `CCCCCCCCSc1cc(N(NC(=O)OC(C)(C)C)C(=O)OC(C)(C)C)cc(SCCCCCCCC)c1SCCCCCCCC`, the melting point is 51.5 °C.
The same measure for `Oc1ccc(Cl)cc1` [4-Chlorophenol]: 44 °C.
`COc1cc(C=O)ccc1O` [4-Hydroxy-3-methoxybenzaldehyde] yielded a melting point of 82 °C.
Take `Cc1c(C(=O)O)cc([N+](=O)[O-])cc1[N+](=O)[O-]` [2-Methyl-3,5-dinitrobenzoic acid]: the melting point was 206 °C.
As for `O=C(O)c1ccccc1-c1c2cc(Br)c(=O)c(Br)c-2oc2c(Br)c(O)c(Br)cc12`, the melting point came out at 300 °C.
The molecule `C[C@]12CCC(=O)C=C1CC[C@@H]1[C@@H]2CC[C@@]2(C)[C@H]1CC[C@]2(C)O` [methyltestosterone] returned a melting point of 164 °C.
`O(c1ccccc1OC\C=C)CC(O)CNC(C)C` (stereo not given) [oxprenolol]: the melting point is 112 °C.
`OB(O)c1ccccc1OC(F)(F)F` [2-(trifluoromethoxy)benzeneboronic acid] had a melting point of 119 °C.
`O=S1(=O)CCCO1` [1,2-Oxathiolane 2,2-dioxide] showed a melting point of 32 °C.
Turning to `Clc1ccc(-c2cc(Cl)ccc2Cl)cc1` [PCB-31], the melting point amounted to 65 °C.
For `CSCC[C@H](NC(C)=O)C(=O)O` [N-Acetylmethionine] the value was 106 °C.
For the molecule `c1cc2ccc3ccc4ccc5ccc6ccc1c1c2c3c4c5c61` [Coronene], the melting point was found to be 438 °C.
For `CC(=O)CC(C)(C)O` [4-hydroxy-4-methyl-2-pentanone] the value was -47 °C.
`C/C=C/CC` [trans-2-pentene] returned a melting point of -140 °C.
For `O=C(O)CC(O)(CC(=O)O)C(=O)O` [citric acid anhydrous] the value was 153 °C.
In the case of `CCC(C)(C)O` [2-methyl-2-butanol], the melting point is -8 °C.
Take `Nc1ccc(C(=O)O)c(O)c1` [p-aminosalicylic acid]: the melting point is 150 °C.
In the case of `O=C(O)c1cc(Cl)cc([N+](=O)[O-])c1Cl` [2,5-dichloro-3-nitrobenzoic acid], the melting point was 220 °C.
For `O=CC1CCCCC1` [cyclohexanecarboxaldehyde] the value was 35 °C; for `O=C(O)COc1ccc(F)cc1` [4-fluorophenoxyacetic acid], 105 °C.
`Nc1ccc(-c2ccc3nn(-c4ccccc4)nc3c2)cc1` [4-(2-phenyl-2H-benzotriazol-5-yl)aniline] had a melting point of 143 °C.
`COc1ccc(C=C2N=C(c3ccccc3)OC2=O)cc1` [4-(4-methoxybenzylidene)-2-phenyl-1,3-oxazol-5(4H)-one] had a melting point of 152 °C.
The molecule `CCOc1ccc(NC(C)=O)cc1` [N-(4-Ethoxyphenyl)acetamide] yielded a melting point of 134 °C.
Molecule `CC(Cc1ccccc1)NCCC(c1ccccc1)c1ccccc1` (stereo not given) [Prenylamine] came in with a melting point of 36.5 °C.
`Cn1c(/C(C#N)=N/Nc2cccc(Cl)c2)nc2ccccc21`: the melting point is 166 °C.
`C[C@@H](O)[C@H](N)C(=O)O` [L-Threonine] had a melting point of 256 °C.
As for `Nc1ccccc1C(F)(F)F` [2-(trifluoromethyl)aniline], the melting point was -30 °C and -29 °C.
The molecule `Oc1ccc(Cl)cc1` [p-chlorophenol] yielded a melting point of 44 °C.
For the molecule `Cc1nccn1CC1CCc2c(c3ccccc3n2C)C1=O` (stereo not given) [ondansetron], the melting point came to 231 °C.
For `CCCCCCCCCCCCCC(=O)CCCCCCCCCCCCC` [14-heptacosanone] the value was 78 °C.
`Cc1ccc(C=O)cc1` [p-tolualdehyde] displayed a melting point of -6 °C.
The same measure for `CCOCC` [diethyl ether]: -116 °C; for `O=C(O)C(O)[C@H](O)C(=O)O` (stereo in doubt) [D-tartaric acid]: 169 °C.
The same measure for `Cc1ccccc1[N+](=O)[O-]` [2-nitrotoluene]: -4 °C; for `CN(C)c1ccc(C=O)c(Cl)c1` [2-chloro-4-dimethylaminobenzaldehyde]: 80 °C; for `O=C(O)c1cccc2c1nnn2Cc1ccccc1` [1-Benzyl-1H-benzotriazole-4-carboxylic acid]: 221 °C.
As to `N#Cc1ccc([N+](=O)[O-])cc1` [p-nitrobenzonitrile], the melting point amounted to 149 °C.
As for `O=C(O)CN1C(=O)c2ccccc2C1=O` [N-phthaloylglycine], the melting point stood at 196 °C.
The same measure for `CC12CCC(C1(C)C)C(C/C=C\c1ccccc1)(C1(C/C=C/c3ccccc3)C(=O)C3(C)CCC1C3(C)C)C2=O` (stereo not given): 152 °C.
In the case of `O=C(O)c1ccccc1C(=O)O` [phthalic_acid], the melting point stood at 210 °C.
`c1ccc2c(c1)Cc1cc3ccccc3cc1-2` [2,3-Benzofluorene Benzo[b]fluorene] registered a melting point of 210 °C.
On to `Cn1cnc2c1c(=O)[nH]c(=O)n2C` [theobromine], for which the melting point was found to be 357 °C.
In turn, `O=c1[nH]cc(F)c(=O)[nH]1` [5-fluorouracil] displayed a melting point of 283 °C.
`O=C=Nc1ccccc1` [phenyl isocyanate] yielded a melting point of -33 °C.
`CC1(C)S[C@@H]2[C@H](NC(=O)[C@H](N)c3ccccc3)C(=O)N2[C@H]1C(=O)O` [ampicillin]: the melting point came to 200 °C.
The same measure for `Oc1cc(Cl)ccc1Oc1ccc(Cl)cc1Cl` [5-chloro-2-(2,4-dichlorophenoxy)phenol]: 57 °C.
In turn, `O=C(O)CCCc1ccccc1` [4-phenylbutyric acid] yielded a melting point of 51 °C.
The same measure for `O=C(O)c1ccc(Cl)cc1Cl` [2,4-dichlorobenzoic acid]: 162 °C; for `CN1C(=O)c2ccccc2C1C1=COCCC1` (stereo not given) [3-(3,4-Dihydro-2H-pyran-5-yl)-2-methylisoindolin-1-one]: 95.5 °C; for `CO[C@@H]1O[C@H](CO)[C@H](O)[C@H](O)[C@H]1O` [methyl beta-d-galactopyranoside]: 177 °C.
`CCCCCCC(=O)O` [Heptanoic acid] returned a melting point of -9 °C.
Consider `Cc1ccc(O)cc1` [p-Cresol], for which the melting point stood at 34 °C.
For `CCN(CC)c1ccccc1` [N,N-diethylaniline] the value was -38 °C.
The same measure for `CCCCCN` [1-pentylamine]: -55 °C; for `COc1ccccc1P(c1ccccc1OC)c1ccccc1OC` [tris(2-methoxyphenyl)phosphine]: 200 °C.
`O/N=C(\Cc1ccccc1)c1ccc2ccccc2c1` [(1E)-N-hydroxy-1-(naphthalen-2-yl)-2-phenylethanimine] came in with a melting point of 129 °C.
For the molecule `COC(=O)c1ccc(CO)cc1` [methyl_4-hydroxymethylbenzoate], the melting point stood at 51 °C.
For the molecule `Clc1cc(-c2ccccn2)nc(-c2ccccn2)c1` [4'-chloro-2,2':6',2''-terpyridine], the melting point turned out to be 150 °C.
The molecule `CN(C)CCC(O)(c1ccccc1)c1ccccc1Cl` (stereo not given) [chlophedianol] yielded a melting point of 120 °C.
In turn, `O=C(O)c1ccc(C(F)(F)F)cc1F` [2-fluoro-4-(trifluoromethyl)benzoic acid] had a melting point of 168 °C.
On to `Nc1ncnc2c1ncn2Cc1c(F)cccc1Cl` [arprinocid], for which the melting point came to 245 °C.
Regarding `O=[N+]([O-])c1ccc(OCC(O)CO)cc1` (stereo not given) [1-(4-nitrophenyl)glycerol], the melting point stood at 96 °C.
The molecule `CCCCOc1ccccc1` [N-butyl phenyl ether] showed a melting point of -19 °C.
The molecule `CCOC(=O)c1ccc(Cl)c([N+](=O)[O-])c1` [ethyl 4-chloro-3-nitrobenzoate] gave a melting point of 54 °C.
For `O=C(O)c1ccc2ccccc2n1` [quinaldic acid] the value was 158 °C.
For `CC(C)C(O)C(C)(C)C` (stereo not given) [2,2,4-trimethyl-3-pentanol], the melting point was -11 °C.
The molecule `OCCN(CCO)CCO` [triethanolamine] yielded a melting point of 20 °C.
In turn, `CC(=O)Oc1ccccc1C(=O)O` [aspirin] showed a melting point of 138 °C.
The same measure for `COc1ccc2c(c1)c(CC(=O)O)c(C)n2C(=O)c1ccc(Cl)cc1` [indomethacin]: 160 °C.
For `CCOP(=O)(OCC)OCC` [Triethyl phosphate] the value was -56 °C.
Molecule `Cc1cc(Cl)c(Cl)cc1Cl` [2,4,5-Trichlorotoluene] yielded a melting point of 82.4 °C.
Regarding `COc1ccccc1N1CCN(CCCC(=O)c2ccc(F)cc2)CC1` [fluanisone], the melting point was 68 °C.
For the molecule `CCCCCc1ccc(O)cc1` [4-n-pentylphenol], the melting point came to 24 °C.
Molecule `O=C/C=C/c1ccccc1` [(2E)-3-Phenylacrylaldehyde] had a melting point of -7 °C.
`Cc1ccc(C(C)C)cc2c(C)ccc1-2` [guaiazulene] returned a melting point of 32 °C.
On to `Oc1ccc2ccccc2c1` [2-naphthol], for which the melting point was 123 °C and 122 °C.
Consider `CCCCCCCCCCCCCCCCC` [heptadecane], for which the melting point came to 22 °C.
As for `N#CCc1ccc(C#N)cc1` [p-cyano_phenylacetonitrile], the melting point is 100 °C.
In turn, `c1ccc(Oc2ccccc2)cc1` [phenyl_ether] displayed a melting point of 28 °C.
For `Cc1ccccc1C1(C#N)Cc2ccccc2C(=O)O1` (stereo not given) the value was 122 °C; for `CS(=O)(=O)OCCCCOS(C)(=O)=O` [busulfan], 116 °C.
For the molecule `COc1ccc(OC)cc1` [p-dimethoxybenzene], the melting point is 60 °C.
On to `CCCNC(=O)NS(=O)(=O)c1ccc(Cl)cc1` [Chlorpropamide], for which the melting point was 128 °C.
The same measure for `O=C(O)c1cccc(CO)c1` [m-hydroxymethyl_benzoic_acid]: 115 °C.
